The values below come from US20220331433A1, “NUCLEIC ACID-MEDIATED DELIVERY OF THERAPEUTICS” (The Regents of the University of California, priority 2019, published 2022).

Entries after “also recorded” stand apart in the source; their conditions may differ. Like-named read-outs stand apart in the source and are kept apart here.

Data set [1] can be described thus: Complete blood count and liver enzyme panel. Format: in vivo. The following applies: 20 mg/kg DOX or DOX equiv., tail vein, 24 h p.i., C57BL/6 mice, n=3. Here is the method:
Hematotoxicity and Liver Enzyme Panel. The mice used in this study were 6-12 week-old female C57BL/6/027 mice (Charles River Laboratories, Wilmington, Mass., USA). The mice were administered treatment via tail vein injection. After 24 h, complete blood count (CBC), and liver enzyme levels were measured. Blood for CBC was collected by saphenous vein collection, mixed with EDTA, and analyzed with a hematology analyzer for white blood cells (WBC), red blood cells (RBC), hemoglobin (Hgb), platelets (Plt) and hematocrit (HCT). For the liver enzyme panel, serum was isolated from blood and sent to IDEXX Laboratories, Inc. (Westbrook, Me.) for alkaline phosphatase (ALP), aspartate aminotransferase (AST), alanine aminotransferase (ALT), and total bilirubin analysis.
Complete blood count and liver enzyme panel of DOX/DNA and DOX. A complete blood count and liver enzyme panel were conducted in C57BL/6 mice treated with 20 mg/kg DOX, 20 mg/kg DOX equiv. of DOX/DNA, PBS, or 120 mg/kg DNA, n=3. […] After 24 h p.i., complete blood count (CBC), and liver enzyme levels were measured. Blood was collected by saphenous vein collection, mixed with EDTA, and analyzed with a hematology analyzer for white blood cells (WBC), red blood cells (RBC), hemoglobin (Hgb), platelets (Plt) and hematocrit (HCT). […]

Data set [2] is described as follows: Titration of DOX, DNA and DOX/DNA. Format: physicochemical. Here is the method:
Titration of DOX, DNA, and DOX/DNA using a weak base. DOX, DNA or DOX/DNA were made in water at an initial volume of 1 mL. DOX equiv. at 600 μg/mL. The pH was then brought down below 2 with 1 M HCl, then the pH was adjusted higher using small volumes (100 μL or 20 μL) of 0.1 M NaOH.

Data set [3] in a line: Pharmacokinetics in EL4-challenged C57BL/6 mice. It counts as in vivo. The method, then: Pharmacokinetics. […] Blood samples were collected from the saphenous vein of the mice at each time point, spun down in a serum collection tube, and the resultant supernatant was analyzed in acidified alcohol for DOX fluorescence using the Multi-Mode reader.
The mice were 6-8-week-old female mice.

Data set [4] concerns EL4 cells. In words: Endocytosis inhibition, EL4 cellular uptake. Format: cell-based. The following applies: inhibitors CPZ, Filipin III, EIPA, NaN3, PS2 or 4° C., 1 hour treatment. The method, then: Endocytosis Inhibition. EL4 DOX uptake from DOX or DOX/DNA treatment after exposure to inhibitors NaN3 (120 mM), PS2 (12 μg/mL), Filipin III (5 μg/mL), CPZ (20 μM), EIPA […], or 4° C. was measured using flow cytometry or spectrofluorimetry. Briefly, cells were primed for 15 minutes with the inhibitors before being treated for 1 hour with DOX or DOX/DNA. Cells containing DOX or DOX/DNA were counted with the flow cytometer using yellow fluorescence, and cells containing DOX/DNA were counted using spectrofluorimetry. Fluorescence was measured using a Guava® easyCyte™ Flow Cytometer (Millipore Sigma, Burlington, Mass.) or the Multi-Mode reader (Biotek Instruments, Winooski, Vt.).
Endocytosis inhibition and the effect on DOX/DNA and DOX uptake. The effect of inhibitors CPZ (20 μM), Fillipin III […], EIPA (20 μM), and various combinations thereof, or 4° C. on EL4 cellular uptake was evaluated for DOX/DNA (see FIG. 22). Chlorpromazine (CPZ) is a clathrin-dependent pathway inhibitor. […] The concentrations chosen for the assay were determined using a dose-response assay for each inhibitor.
DOX uptake by EL4 cells was tested with inhibitors: NaN3 (120 mM), PS2 (12 μg/mL), Filipin III (5 μg/mL), EIPA (20 μM), and 4° C. Uptake was measured using flow cytometry. […] Cells containing DOX were counted with the flow cytometer using yellow fluorescence.

In data set [5] the test system is EL4 cells. In words: EL4 cytotoxicity, MTT assay. It counts as cell-based. The method, then:
EL4 Cytotoxicity. EL4 cells (ATCC, Rockville, Md.) were plated at 10 k cells per well in a 96-well plate. The plated cells were treated in triplicate for 24, 48, or 72 hours with a range of concentrations of 0.001 μg/mL DOX or DOX equivalent to 10 μg/mL, followed by cellular viability analysis via MTT assay. Cells were incubated at 37° C., 5% CO2, and 100% humidity.
EL4 cells were treated in triplicate for 24, 48, and 72 hours with a range of concentrations, followed by cellular viability analysis via an MTT assay.
On the technique in general: Tetrazolium dyes change colour on reduction, which living cells bring about.

Data set [6] in a line: Acute toxicity survival in C57BL/6 mice. The following applies: 40 mg/kg dose, n=7.
Data set [7] can be described thus: DNA degradation in 10% FBS/PBS (agarose gel). It counts as physicochemical. The following applies: 37° C., 0 to 48 h, [DNA] 100 μg/mL. The method, then:
DNA Degradation in 10% FBS/PBS. A 1% (w/v) agarose gel in 1×Tris Acetate EDTA (TAE) containing 1 μg/mL ethidium bromide was used to characterize the degradation of DNA in 10% FBS/PBS over 48 hours. DNA was incubated with serum-containing PBS at 37° C. over time. Samples were stored in −20° C. to stop enzymatic degradation from nucleases at each time point. The concentration of DNA=100 μg/mL. The gel was run at 100 V for 40 minutes and DNA was imaged on a UV transilluminator (Fotodyne, Heartland, Wis.).
DNA Degradation in 10% FBS/PBS. To determine the stability of the DNA to serum exposure, DNA (100 μg/mL) was incubated with serum-containing PBS at 37° C. over a time period of 0 to 48 h. Samples were stored in −20° C. to stop enzymatic degradation from nucleases at each time point. […] It is likely that the nucleases in the serum-containing media are contributing to the degradation of DNA. It is possible to infer a delayed release of DOX due to this degradation of DNA overtime in 10% FBS.

Data set [8] is described as follows: Stability of DNA in water and PBS (TEM). Format: physicochemical. The following applies: [DNA] 6 μg/mL. The method, then: Stability of DNA in water and PBS. DNA was prepared in PBS and diluted in H2O and then imaged. Final [DNA]=6 μg/mL.

The IC50 is the concentration that gives 50% inhibition.

In the case of Doxorubicin, in data set [1], the “Effect on circulating blood cells and liver enzymes” value is reported as “greater impact”. Moreover, the “pKa (amine)” value in data set [2] amounted to 8.46. Also, the “pKa (estimated)” value in data set [2] is 9.46. In addition, the “pKa (phenol)” value in data set [2] stood at 7.34. Also, in data set [3] (20 mg/kg DOX or DOX equiv. i.v., n=3), the “Blood circulation residence half-life T1/2” value is 3 min. Besides, the “Time of absorption by the tissue” value in data set [3] (20 mg/kg i.v.) was ~15 min. Further, the Cellular uptake pathway entry in the data set on EL4 cells [4] was “primarily via membrane fusion”. Further, the IC50 in the data set on EL4 cells [5] (24 h incubation) worked out at 0.313 µg/mL; with EL4 cells [5] (24 h incubation, read-out: IC50), 576 nM; with EL4 cells [5] (48 h incubation), 0.093 µg/mL; in the data set on EL4 cells [5] (72 h incubation), 0.048 µg/mL. For the same substance, the Acute toxicity result in data set [6] is “acute toxicity (cardiac arrest)”.
On to Deoxyribonucleic acid [DNA], for which the Degradation in serum result in data set [7] is on record as “degraded serum in a time dependent manner; also recorded: degraded overtime”. In addition, in data set [8], the “Stability in water or PBS” value is reported as “largely stable”.
